According to article PMC10081362 (Research Square, 2023):
pIC50: −log10 of the molar value.

What was measured:
OXTR [1] = target: T1, OXTR (Homo sapiens, UniProt P30559); experiment: Radioligand competitive binding assay (NIMH PDSP)
T1 construct: host or cells: CHO-K1, stably transfected
T1 sequence (P30559 1-389): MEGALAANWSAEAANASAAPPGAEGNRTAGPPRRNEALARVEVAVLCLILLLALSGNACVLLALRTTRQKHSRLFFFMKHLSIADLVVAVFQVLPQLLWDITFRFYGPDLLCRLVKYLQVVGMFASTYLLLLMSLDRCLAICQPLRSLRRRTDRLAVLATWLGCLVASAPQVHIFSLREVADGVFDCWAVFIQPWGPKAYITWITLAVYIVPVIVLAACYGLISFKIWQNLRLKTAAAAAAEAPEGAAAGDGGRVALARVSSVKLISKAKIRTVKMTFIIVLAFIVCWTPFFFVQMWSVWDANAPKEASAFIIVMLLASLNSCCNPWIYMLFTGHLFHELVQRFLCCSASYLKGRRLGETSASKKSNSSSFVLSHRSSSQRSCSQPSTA
Method: Radioligand binding assays were carried out by the (NIMH) Psychoactive Drug Screening Program[61]. The detailed experimental protocols for the radioligand assay are available on the NIMH PDSP website at http://pdsp.med.unc.edu/UNC-CH%20Protocol%20Book.pdf. […] Binding data were analyzed and plotted using Prism 8 (GraphPad, San Diego, CA).

[2] = tested on: OXTR+ neurons in the auditory cortex; type: cell-based, mouse
Method: In vitro recordings were performed in acute slices of the auditory cortex prepared from male and female 2–5 month old OXTRcre∷Ai9 mice. Mice were deeply anesthetized with 5% isoflurane and perfused transcardially with ice-cold dissection buffer containing (in mM): 87 NaCl, 75 sucrose, 2.5 KCl, 1.25 NaH2PO4, 0.5 CaCl2, 7 MgCl2, 25 NaHCO3, 1.3 ascorbic acid, and 10 D-glucose, bubbled with 95%/5% O2/CO2 (pH 7.4). Following perfusion and decapitation, brains were removed and placed in the cold buffer solution, and slices (250–300 μm thick) were prepared with a vibratome (Leica P-1000). Slices were placed in warm artificial cerebrospinal fluid (ACSF, in mM: 124 NaCl, 2.5 KCl, 1.5 MgSO4, 1.25 NaH2PO4, 2.5 CaCl2, and 26 NaHCO3) (33–35 °C) for <30 minutes, then cooled to room temperature (22–24 °C) for at least 30 minutes before use. Slices were transferred to the recording chamber and superfused (2.5–3 ml min^−1) with oxygenated ACSF at 33 °C. Whole-cell current-clamp recordings were made from layer 2/3 pyramidal cells with a Multiclamp 200B or 700B amplifier (Molecular Devices, San Diego). Cortical regions and layers were identified using IR video microscopy (Olympus, Japan), and OXTR-positive neurons were identified based on expression of tdTomato, visualized with an Olympus 40 × water- immersion objective with TRITC filter. […]

OXTR [3] = target: T1, OXTR; experiment: Calcium flux fluorescence assay (FLUO-8) in CHO-K1 cells stably expressing OXTR; type: cell-based
Method: Stably transfected CHO-K1 cell lines overexpressing OXTR or V1a were obtained from Dr. Bryan Roth via the National Institute of Mental Health (NIMH) Psychoactive Drug Screening Program. The cells were cultured and maintained in Hams F12 medium (Gibco, Waltham, MA) supplemented with 400 μg/ml G418 (Gibco, Waltham, MA), 10% heat-inactivated FBS (Gibco, Waltham, MA), 15 mM HEPES (Gibco, Waltham, MA), 100 units ml^−1 of penicillin, 100 μg ml^−1 of streptomycin. The cells were grown in an atmosphere of 37°C and 8% CO2 and were passaged following trypsinization with Trypsin-LE (Gibco, Waltham, MA). CHO-K1 cells overexpressing OXTR were seeded overnight at 50,000 cells/100 μL/well in a black wall/clear bottom 96-well plate pretreated with poly-lysine (Gibco, Waltham, MA). […] The calcium flux assay was carried out on a FlexStation 3 Microplate Reader (Molecular Devices, San Jose, CA).

[4] = UV-Vis absorption spectra upon 365 nm irradiation; type: physicochemical; details: 365 nm LED, 3 mW; 20 μM, 1% DMSO/PBS; absorption spectrum unchanged
Method: All measurements were performed in the dark or under red light. Samples were stored at −20 °C. UV-Vis spectroscopy was performed using a Cary 60 UV-Vis Spectrophotometer equipped with a PCB 1500 High-Performance Peltier thermostat (Agilent Technologies, Santa Clara, CA). Samples were measured using ultra-micro cuvettes with a 10 mm light path (BrandTech, Essex, CT). Irradiation was performed using an Optoscan Monochromator equipped with an Optosource High-Intensity Arc Lamp (Cairn Research, Kent, UK) set to 15 nm full width at half maximum and installed with a 75 W UXL-S50A xenon arc lamp (USHIO, Tokyo, JP). The light source was set to 365 nm, and the power output was measured at the sample position using a PM100D compact power and energy meter console and S120VC Si photodiode sensor (Thorlabs, Newton, NJ). A constant 3 mW power output at 365 nm was maintained throughout the experiments. The monochromator was controlled using a custom MATLAB program, and data were analyzed and plotted using Prism 8 (GraphPad, San Diego, CA).
For measuring the UV-visible absorption spectra, we prepared a […] DMSO stock solution of each respective compound, diluted to 20 μM (1% DMSO in PBS). A sample (1 mL) of the solution (20 μM) was transferred to a cuvette and measured by under ambient conditions (24 °C). […]

[5] = tested on: mammary tissue from lactating GCaMP6f∷K5CreERT2 mice; experiment: Ex vivo three-dimensional time-lapse imaging of lactating mammary tissue; type: cell-based, mouse; details: 85 nM oxytocin in bath
Method: Mammary glands were harvested from lactating GCaMP6f;K5CreERT2 mice diced into 3- to 4- mm^3 pieces and loaded with CellTracker Red (1.5 μM, ThermoFisher C34552, ThermoFisher, Waltham, MA) for at least 30 minutes in DMEM/F12 containing 10% FCS. Under these conditions, CellTracker preferentially labels luminal cells. […] Samples were imaged on a Leica TCS SP8 inverted microscope (Leica, Germany) with 20× 0.75NA HC PL APO CS2 objective. For uncaging, a region of interest (ROI) was targeted with a 405 nm laser at 100% laser power for 3s each trial. […] Protocol for image processing and analysis was previously reported in (Stevenson et al., 2020)[48].

| SMILES | pIC50 (OXTR [1]) | toxic effects on neurons in slices [2] | activation of OXTR+ cells in presence of OXTR antagonist OTA (OXTR [3]; 1 μM agonist with 10 μM OTA, after photolysis with 365 nm LED, Fig. 2e) | fluorescence (calcium flux) (OXTR [3]; oxytocin 1 μM, Fig. 2d, normalized to maximal response produced by oxytocin, mean ± SEM, n=5 wells) | duration of stability towards 365 nm irradiation [4] | peak depolarization of OXTR+ neurons ([2]; 1 μM oxytocin wash-on, or cOT1 wash-in and 365 nm light pulsed at 20 Hz, Fig. 4k) | calcium and contraction response to whole-tissue wash on [5] |
| --- | --- | --- | --- | --- | --- | --- | --- |
| CC[C@H](C)[C@@H]1NC(=O)[C@H](Cc2ccc(OCc3ccccc3[N+](=O)[O-])cc2)NC(=O)[C@@H](N)CSSC[C@@H](C(=O)N2CCC[C@H]2C(=O)N[C@@H](CC(C)C)C(=O)NCC(N)=O)NC(=O)[C@H](CC(N)=O)NC(=O)[C@H](CCC(N)=O)NC1=O [cOT1] | 5.70 | without apparent toxic effects | – | – | – | – | – |
| CC[C@H](C)[C@@H]1NC(=O)[C@H](Cc2ccc(O)cc2)NC(=O)[C@@H](N)CSSC[C@@H](C(=O)N2CCC[C@H]2C(=O)N[C@@H](CC(C)C)C(=O)NCC(N)=O)NC(=O)[C@H](CC(N)=O)NC(=O)[C@H](CCC(N)=O)NC1=O [oxytocin] | – | – | failed to activate | 142.4±1.8 | at least 30 minutes | significant membrane depolarization | increase in intracellular calcium, followed by cell and alveolar contraction across all cells |
